Test results from patent publication US11845751B2, “Triazolotriazine derivatives as A2A receptor antagonists” (ZHEJIANG VIMGREEN PHARMACEUTICALS, LTD., priority 2018, dated 2023).

The compounds below were run against T1, A2AR (hADORA2A-HEK293 cells) (Homo sapiens, UniProt P29274) (assay: functional cAMP production assay: NECA stimulation of cAMP production and its inhibition by A2AR antagonists). Details: not given.
T1 construct: expressed in transfected cells; host or cells: HEK293 (hADORA2A-HEK293)
Assay type: cell-based
Method: The antagonistic activities of the triazolotriazine derivatives of the present invention were measured in a functional cAMP production assay. The assay consists of NECA stimulation of cAMP production and its inhibition by A2AR antagonists in A2AR-expressing HEK293 cells (hADORA2A-HEK293). All cells were cultured in complete medium at 37° C. in 5% CO2. The cells were detached with pancreatin and collected at 200 g for 5 min. After resuspending the cells in fresh complete medium, the cell viability is counted using the trypan blue exclusion method. […] After the cells were diluted with Hank's buffered saline solution containing HEPES (5 mM), BSA stabilizer (0.1%) and […] Rolipram (10 μM), cells were loaded into white opaque 384-well plates (˜500 cells/well, 10 μl/well) and incubated with test compound at a suitable concentration range (11 concentrations) for 20 min at room temperature. Then the A2A receptor agonist NECA (final concentration=EC80, which was determined in the same experiment slightly earlier) was added to the sample and the mixture was incubated again for 30 min at 37° C. […] The inhibition rate (%) was calculated according to the following formula. The IC50 values were calculated from concentration-inhibition (%) curves after log transformation.

T1 sequence (P29274 whole entry): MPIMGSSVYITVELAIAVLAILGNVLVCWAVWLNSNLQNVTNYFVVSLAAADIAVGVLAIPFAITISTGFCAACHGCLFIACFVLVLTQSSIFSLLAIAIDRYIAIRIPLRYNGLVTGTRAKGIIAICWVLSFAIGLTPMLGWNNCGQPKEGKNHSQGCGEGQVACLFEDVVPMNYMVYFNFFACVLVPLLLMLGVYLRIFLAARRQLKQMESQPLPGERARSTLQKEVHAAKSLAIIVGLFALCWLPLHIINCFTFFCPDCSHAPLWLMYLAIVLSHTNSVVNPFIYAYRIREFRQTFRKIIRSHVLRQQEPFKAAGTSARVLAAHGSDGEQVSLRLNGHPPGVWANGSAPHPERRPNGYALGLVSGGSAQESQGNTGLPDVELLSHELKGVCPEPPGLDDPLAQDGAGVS

`Nc1nc(NCCc2ccc(OCCN3CC3)cc2)nc2nc(-c3ccco3)nn12` [Example 124, N5-(4-(2-(Aziridin-1-yl)ethoxy)phenethyl)-2-(furan-2-yl)-[1,2,4]triazolo[1,5-a][1,3,5]triazine-5,7-diamine] showed an IC50 of 8.4 nM.

Same assay, conditions: A2AR-expressing HEK293 cells (hADORA2A-HEK293); NECA at EC80; TR-FRET cAMP readout; read-out: A2AR Potency (IC50, inhibition of NECA-stimulated cAMP production)

Point of comparison: `COCCOCCOCCOCCOCCOCCOCCOCCOc1ccc(CCNc2nc(N)n3nc(-c4ccco4)nc3n2)cc1` [Example 109, N5-(4-(2-(2-(2-(2-(2-(2-(2-(2-Methoxyethoxy)ethoxy)ethoxy)ethoxy)ethoxy)ethoxy)ethoxy)-ethoxy)phenethyl)-2-(furan-2-yl)-[1,2,4]triazolo[1,5-a][1,3,5]triazine-5,7-diamine], IC50 55 nM. Against it:
- COCCOCCOc1ccc(CCNc2nc(N)n3nc(-c4ccco4)nc3n2)cc1 [Example 60, 2-(Furan-2-yl)-N5-(4-(2-(2-methoxyethoxy)ethoxy)phenethyl)-[1,2,4]triazolo[1,5-α][1,3,5]triazine-5,7-diamine] — 5.5-fold lower, 10 nM
- COCCOCCOCCOc1ccc(CCNc2nc(N)n3nc(-c4ccco4)nc3n2)cc1 [Example 65, 2-(Furan-2-yl)-N5-(4-(2-(2-(2-methoxyethoxy)ethoxy)ethoxy)phenethyl)-[1,2,4]triazolo[1,5-α][1,3,5]triazine-5,7-diamine] — 2.6-fold lower, 21.5 nM
- COCCOCCOCCOCCOc1ccc(CCNc2nc(N)n3nc(-c4ccco4)nc3n2)cc1 [Example 70, N5-(4-(2,5,8,11-Tetraoxatridecan-13-yloxy)phenethyl)-2-(furan-2-yl)-[1,2,4]triazolo[1,5-α][1,3,5]triazine-5,7-diamine] — 2.9-fold lower, 19 nM
- COCCOCCOCCOCCOCCOc1ccc(CCNc2nc(N)n3nc(-c4ccco4)nc3n2)cc1 [Example 74, N5-(4-(2,5,8,11,14-Pentaoxahexadecan-16-yloxy)phenethyl)-2-(furan-2-yl)-[1,2,4]triazolo[1,5-α][1,3,5]triazine-5,7-diamine] — 1.7-fold lower, 32.3 nM
- COCCOCCOCCOCCOCCOCCOc1ccc(CCNc2nc(N)n3nc(-c4ccco4)nc3n2)cc1 [Example 78, N5-(4-(2,5,8,11,14,17-Hexaoxanonadecan-19-yloxy)phenethyl)-2-(furan-2-yl)-[1,2,4]triazolo[1,5-α][1,3,5]triazine-5,7-diamine] — 1.8-fold lower, 31.3 nM
- Nc1nc(NCCc2ccc(OCCN3CCOCC3)cc2)nc2nc(-c3ccco3)nn12 [Example 82, 2-(Furan-2-yl)-N5-(4-(2-morpholinoethoxy)phenethyl)-[1,2,4]triazolo[1,5-α][1,3,5]triazine-5,7-diamine] — 6.1-fold lower, 9 nM
- Nc1nc(NCCc2ccc(OCCCN3CCOCC3)cc2)nc2nc(-c3ccco3)nn12 [Example 86, 2-(Furan-2-yl)-N5-(4-(3-morpholinopropoxy)phenethyl)-[1,2,4]triazolo[1,5-α][1,3,5]triazine-5,7-diamine] — 3.8-fold lower, 14.3 nM
- Nc1nc(NCCc2ccc(OCCc3ccccn3)cc2)nc2nc(-c3ccco3)nn12 [Example 90, 2-(Furan-2-yl)-N5-(4-(2-(pyridin-2-yl)ethoxy)phenethyl)-[1,2,4]triazolo[1,5-α][1,3,5]triazine-5,7-diamine] — 5-fold lower, 10.9 nM
- Nc1nc(NCCc2ccc(OCCOCCN3CCOCC3)cc2)nc2nc(-c3ccco3)nn12 [Example 94, 2-(Furan-2-yl)-N5-(4-(2-(2-morpholinoethoxy)ethoxy)phenethyl)-[1,2,4]triazolo[1,5-α][1,3,5]triazine-5,7-diamine] — 3.4-fold lower, 16 nM
- Nc1nc(NCCc2ccc(OCCN3CCC3)cc2)nc2nc(-c3ccco3)nn12 [Example 98, N5-(4-(2-(Azetidin-1-yl)ethoxy)phenethyl)-2-(furan-2-yl)-[1,2,4]triazolo[1,5-α][1,3,5]triazine-5,7-diamine] — within 1.5-fold, 48.5 nM
- COCCOCCOCCOCCOCCOCCOCCOc1ccc(CCNc2nc(N)n3nc(-c4ccco4)nc3n2)cc1 [Example 102, N5-(4-(2-(2-(2-(2-(2-(2-(2-Methoxyethoxy)ethoxy)ethoxy)ethoxy)ethoxy)ethoxy)ethoxy)-phenethyl)-2-(furan-2-yl)-[1,2,4]triazolo[1,5-a][1,3,5]triazine-5,7-diamine] — 2.9-fold lower, 19 nM
- CN(C)CCCOc1ccc(CCNc2cc(N)n3nc(-c4ccco4)nc3c2)cc1 [Example 113, N^7-(4-(3-(Dimethylamino)propoxy)phenethyl)-2-(furan-2-yl)-[1,2,4]triazolo[1,5-a]pyridine-5,7-diamine] — 3.7-fold lower, 15 nM
- COCCOCCOCCOCCOCCOCCOCCOCCOCCOc1ccc(CCNc2nc(N)n3nc(-c4ccco4)nc3n2)cc1 [Example 117, N5-(4-(2-(2-(2-(2-(2-(2-(2-(2-(2-Methoxyethoxy)ethoxy)ethoxy)ethoxy)ethoxy)ethoxy)-ethoxy)ethoxy)ethoxy)phenethyl)-2-(furan-2-yl)-[1,2,4]triazolo[1,5-a][1,3,5]triazine-5,7-diamine] — within 1.5-fold, 38 nM
- CN1CCC(COc2ccc(CCNc3nc(N)n4nc(-c5ccco5)nc4n3)cc2)CC1 [Example 121, N5-(4-((1-Methylpiperidin-4-yl)methoxy)phenethyl)-2-(furan-2-yl)-[1,2,4]triazolo[1,5-a][1,3,5]triazine-5,7-diamine] — 3.9-fold lower, 14.1 nM
- Nc1nc(NCCc2ccc(OCCF)cc2)nc2nc(-c3ccco3)nn12 [Example 142, N5-(4-(2-Fluoroethoxy)phenethyl)-2-(furan-2-yl)-[1,2,4]triazolo[1,5-a][1,3,5]triazine-5,7-diamine] — 6.8-fold lower, 8.09 nM
- CN(C)[C@H]1CCN(CCOc2ccc(CCNc3nc(N)n4nc(-c5ccco5)nc4n3)cc2)C1 [Example 154, (S)-N5-(4-(2-(3-(Dimethylamino)pyrrolidin-1-yl)ethoxy)phenethyl)-2-(furan-2-yl)-[1,2,4]triazolo[1,5-a][1,3,5]triazine-5,7-diamine] — 2.2-fold lower, 25.3 nM
- CN(C)C1CN(CCOc2ccc(CCNc3nc(N)n4nc(-c5ccco5)nc4n3)cc2)C1 [Example 162, N5-(4-(2-(3-(Dimethylamino)azetidin-1-yl)ethoxy)phenethyl)-2-(furan-2-yl)-[1,2,4]triazolo[1,5-a][1,3,5]triazine-5,7-diamine] — 3.1-fold lower, 17.5 nM
- Nc1nc(NCCc2ccc(OCC(F)(F)F)cc2)nc2nc(-c3ccco3)nn12 [Example 207, N5-(4-(2,2,2-Trifluoroethoxy)phenethyl)-2-(furan-2-yl)-[1,2,4]triazolo[1,5-a][1,3,5]triazine-5,7-diamine] — 6.1-fold lower, 8.96 nM
- CN(C)[C@@H]1CCN(CCOc2ccc(CCNc3nc(N)n4nc(-c5ccco5)nc4n3)cc2)C1 [Example 214, N5-((R)-4-(2-(3-(Dimethylamino)pyrrolidin-1-yl)ethoxy)phenethyl)-2-(furan-2-yl)-[1,2,4]triazolo[1,5-a][1,3,5]triazine-5,7-diamine] — 1.6-fold lower, 35.2 nM
- Nc1nc(NCCc2ccc(NC(=O)CCN3CCCC3)cc2)nc2nc(-c3ccco3)nn12 [Example 226, N-(4-(2-((7-Amino-2-(furan-2-yl)-[1,2,4]triazolo[1,5-a][1,3,5]triazin-5-yl)amino)ethyl)-phenyl)-3-(pyrrolidin-1-yl)propanamide] — 2.8-fold lower, 20 nM
- CN1CCN(CCC(=O)Nc2ccc(CCNc3nc(N)n4nc(-c5ccco5)nc4n3)cc2)CC1 [Example 229, N-(4-(2-((7-Amino-2-(furan-2-yl)-[1,2,4]triazolo[1,5-a][1,3,5]triazin-5-yl)amino)ethyl)-phenyl)-3-(4-methylpiperazin-1-yl)propanamide] — 2.2-fold lower, 25.3 nM
- CN1CCC(C(=O)Nc2ccc(CCNc3nc(N)n4nc(-c5ccco5)nc4n3)cc2)CC1 [Example 241, N-(4-(2-((7-Amino-2-(furan-2-yl)-[1,2,4]triazolo[1,5-a][1,3,5]triazin-5-yl)amino)ethyl)-phenyl)-1-methylpiperidine-4-carboxamide] — 4.9-fold lower, 11.2 nM
- Nc1nc(NCCc2ccc(OCCOCCF)cc2)nc2nc(-c3ccco3)nn12 [Example 245, N5-(4-(2-(2-Fluoroethoxy)ethoxy)phenethyl)-2-(furan-2-yl)-[1,2,4]triazolo[1,5-a][1,3,5]triazine-5,7-diamine] — 5.4-fold lower, 10.1 nM
- CN(C)CCNc1ccc(CCNc2nc(N)n3nc(-c4ccco4)nc3n2)cc1 [Example 254, N5-(4-((2-(Dimethylamino)ethyl)amino)phenethyl)-2-(furan-2-yl)-[1,2,4]triazolo[1,5-a][1,3,5]triazine-5,7-diamine] — 2.8-fold lower, 19.6 nM
- Nc1nc(NCCc2ccc(NC(=O)Cc3ccncc3)cc2)nc2nc(-c3ccco3)nn12 [Example 276, N-(4-(2-((7-Amino-2-(furan-2-yl)-[1,2,4]triazolo[1,5-a][1,3,5]triazin-5-yl)amino)ethyl)-phenyl)-2-(pyridin-4-yl)acetamide] — 3.1-fold lower, 17.5 nM
- CN(CCOc1ccc(CCNc2nc(N)n3nc(-c4ccco4)nc3n2)cc1)Cc1cccnc1 [Example 284, 2-(Furan-2-yl)-N5-(4-(2-(methyl(pyridin-3-ylmethyl)amino)ethoxy)phenethyl)-[1,2,4]triazolo[1,5-a][1,3,5]triazine-5,7-diamine] — 1.7-fold lower, 32.3 nM
- CN1CCCN(CCOc2ccc(CCNc3nc(N)n4nc(-c5ccco5)nc4n3)cc2)CC1 [Example 286, 2-(Furan-2-yl)-N5-(4-(2-(4-methyl-1,4-diazepan-1-yl)ethoxy)phenethyl)-[1,2,4]triazolo[1,5-a][1,3,5]triazine-5,7-diamine] — 1.7-fold lower, 33 nM
- Nc1nc(NCCc2ccccn2)nc2nc(-c3ccco3)nn12 [Example 302, 2-(Furan-2-yl)-N5-(2-(pyridin-2-yl)ethyl)-[1,2,4]triazolo[1,5-a][1,3,5]triazine-5,7-diamine] — 4.3-fold lower, 12.7 nM
